Results: patent US20240279278A1, “NMU RECEPTOR 2 AGONISTS” (Boehringer Ingelheim International GmbH, priority 2023, published 2024)
Residues, ends and D or L forms follow the SMILES beside them.

What was measured:
[1] = biological target: T1, human NMUR2 receptor (Homo sapiens, UniProt Q9GZQ4); experiment: IP1 Gq HTRF assay, activation of human NMUR2 in buffer; assay type: cell-based; parameters: expressed in transfected cells; host or cells: CHO-K1; details: CHO-K1 cells expressing human NMUR2, stimulation buffer with 0.1% BSA; read-out: EC50 (hNMUR2) buffer
T1 sequence (Q9GZQ4 whole entry): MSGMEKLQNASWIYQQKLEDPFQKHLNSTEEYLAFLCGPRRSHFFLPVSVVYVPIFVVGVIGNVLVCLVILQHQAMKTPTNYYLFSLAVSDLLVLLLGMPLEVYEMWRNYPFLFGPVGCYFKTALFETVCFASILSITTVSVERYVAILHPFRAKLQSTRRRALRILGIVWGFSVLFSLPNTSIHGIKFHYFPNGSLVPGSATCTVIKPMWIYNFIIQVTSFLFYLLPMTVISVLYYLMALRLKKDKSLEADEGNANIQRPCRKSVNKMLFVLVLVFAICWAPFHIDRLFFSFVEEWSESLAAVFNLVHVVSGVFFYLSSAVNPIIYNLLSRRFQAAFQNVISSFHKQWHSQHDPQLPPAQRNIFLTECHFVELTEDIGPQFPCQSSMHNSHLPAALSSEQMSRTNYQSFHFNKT
Text: Example 3: IP1 Gq HTRF Assay Activation of Human NMUR2 or Human NMUR1 in Buffer Application of the Homogenous Time Resolved Fluorescence (HTRF) technology optimized for Gq coupled receptors has been described in detail in the Cisbio IP-One Gq kit manual. In brief, a FRET signal (FRET: fluorescence resonance energy transfer) is generated between the donor label of an IP-One antibody (anti-IP1-Tb) and the acceptor label of a tagged IP-One (IP1-d2). Agonism of a Gq coupled receptor increases intracellular IP-One, which competes with labeled IP-One and leads to a reduction of the FRET signal. Frozen stocks of CHO-K1 cells stably expressing the human NMUR1 or NMUR2 receptor were thawed and 5000 cells were seeded in culture medium (HAM'S F12, 10% FCS) into each well of a 384-well assay plate. After seeding, cells were incubated for 24 h in a humidified incubator at 37° C. and 5% CO2. Next, cells were washed once with 50 μL of wash buffer (20 mM Hepes, 1×HBSS, pH 7.4), followed by addition of either 10 μL of stimulation buffer (20 mM Hepes, 1×HBSS, 50 mM LiCl, 0.1% BSA, pH 7.4). Peptide agonists to be tested were dissolved in 100% DMSO and pre-diluted in stimulation buffer at a suitable concentration range for an 8 pt dose-response curve. 5 μL of peptide pre-dilution were then added to each well, followed by another 5 μL of stimulation buffer to give a final concentration of 1% DMSO. Samples were subsequently incubated for 1 hour in a humidified incubator at 37° C. After addition of 5 μL each of IP1-d2 and anti-IP1-Tb, samples were incubated for another 1 hour at room temperature and FRET signals (ratio 665 nm/620 nm) were measured. EC50 values were calculated by nonlinear regression using a 4-parameter sigmoidal curve fit.

[2] = biological target: T1, human NMUR2 receptor; experiment: IP1 Gq HTRF assay, activation of human NMUR2 in human plasma; assay type: cell-based; parameters: expressed in transfected cells; host or cells: CHO-K1; details: CHO-K1 cells expressing human NMUR2, 100% human plasma; read-out: EC50 (hNMUR2) human plasma
Text: Example 4: IP1 Gq HTRF Assay Activation of Human NMUR2 in Human Plasma Application of the Homogenous Time Resolved Fluorescence (HTRF) technology optimized for Gq coupled receptors has been described in detail in the Cisbio IP-One Gq kit manual. In brief, a FRET signal is generated between the donor label of an IP-One antibody (anti-IP1-Tb) and the acceptor label of a tagged IP-One (IP1-d2). Agonism of a Gq coupled receptor increases intracellular IP-One, which competes with labeled IP-One and leads to a reduction of the FRET signal. Frozen stocks of CHO-K1 cells stably expressing the human NMUR1 receptor or human NMUR2 receptor were thawed and 5000 cells were seeded in culture medium (HAM'S F12, 10% FCS) into each well of a 384-well assay plate. After seeding, cells were incubated for 24 h in a humidified incubator at 37° C. and 5% CO2. Next, cells were washed once with […] of wash buffer (20 mM Hepes, 1×HBSS, pH 7.4), followed by addition of […] (100% human plasma, 50 mM LiCl). Peptide agonists to be tested were dissolved in 100% DMSO and pre-diluted in plasma at a suitable concentration range for an 8 pt dose-response curve. 5 μL of peptide pre-dilution were then added to each well, followed by another 5 μL of plasma to give a final concentration of 1% DMSO. Samples were subsequently incubated for 1 hour in a humidified incubator at 37° C. The plasma solution was replaced by 20 μL of stimulation buffer. After addition of 5 μL each of IP1-d2 and anti-IP1-Tb, samples were incubated for another 1 hour at room temperature and FRET signals (ratio 665 nm/620 nm) were measured. EC50 values were calculated by nonlinear regression using a 4-parameter sigmoidal curve fit.

SMILES | EC50 [1] | EC50 [2]
CCCC[C@H](NC(=O)[C@H](CC(C)C)N(C)C(=O)[C@H](Cc1ccccc1)NC(=O)[C@H](Cc1ccc(O)cc1)NC(=O)CN1CCN(CCNC(=O)CN(C)C(=O)CN(C)C(=O)CN(C)C(=O)CN(C)C(=O)CN(C)C(=O)CN(C)C(=O)CN(C)C(=O)CN(C)C(=O)CN(C)C(=O)CN(C)C(=O)CN(C)C(=O)CN(C)C(=O)CC[C@H](NC(=O)CC[C@H](NC(=O)CC[C@H](NC(=O)CC[C@H](NC(=O)CCCCCCCCCCCCCCCCCCC(=O)O)C(=O)O)C(=O)O)C(=O)O)C(=O)O)CC1)C(=O)N[C@@H](CCN)C(=O)N1CCC[C@H]1C(=O)N[C@@H](CCCNC(=N)N)C(=O)NCC(N)=O [Compound 15, C20DA-gGlu4-Sar12-AEPipAc-Tyr-Phe-NMeLeu-Nle-Dbu-Pro-Arg-Gly-NH2] | 3.2 nM | 10.8 nM
CCCC[C@H](NC(=O)[C@H](CC(C)C)N(C)C(=O)[C@H](Cc1ccccc1)NC(=O)[C@H](Cc1ccc(O)cc1)NC(=O)CN1CCN(CCNC(=O)CN(C)C(=O)CN(C)C(=O)CN(C)C(=O)CN(C)C(=O)CN(C)C(=O)CN(C)C(=O)CN(C)C(=O)CN(C)C(=O)CN(C)C(=O)CN(C)C(=O)CN(C)C(=O)CN(C)C(=O)CN(C)C(=O)CN(C)C(=O)CN(C)C(=O)CC[C@H](NC(=O)CC[C@H](NC(=O)CC[C@H](NC(=O)CC[C@H](NC(=O)CCCCCCCCCCCCCCCCCCC(=O)O)C(=O)O)C(=O)O)C(=O)O)C(=O)O)CC1)C(=O)N[C@@H](CCCCN)C(=O)N1CCC[C@H]1C(=O)N[C@@H](CCCNC(=N)N)C(=O)NCC(N)=O [Compound 17, C20DA-gGlu4-Sar15-AEPipAc-Tyr-Phe-NMeLeu-Nle-Lys-Pro-Arg-Gly-NH2] (HELM PEPTIDE1{[O=C(O)CCCCCCCCCCCCCCCCCCC(=O)[*:2]].[gGlu].[gGlu].[gGlu].[gGlu].[Sar].[Sar].[Sar].[Sar].[Sar].[Sar].[Sar].[Sar].[Sar].[Sar].[Sar].[Sar].[Sar].[Sar].[Sar].[O=C(CN1CCN(CCN[*:1])CC1)[*:2]].Y.F.[meL].[Nle].K.P.R.G.[am]}$$$$V2.0) | 4.7 nM | 24.8 nM
CCCC[C@H](NC(=O)[C@H](CC(C)C)N(C)C(=O)[C@H](Cc1ccccc1)NC(=O)[C@H](Cc1ccc(O)cc1)NC(=O)CN1CCN(C(=O)CN(C)C(=O)CN(C)C(=O)CN(C)C(=O)CN(C)C(=O)CN(C)C(=O)CN(C)C(=O)CN(C)C(=O)CN(C)C(=O)CN(C)C(=O)CN(C)C(=O)CN(C)C(=O)CN(C)C(=O)CC[C@H](NC(=O)CC[C@H](NC(=O)CC[C@H](NC(=O)CCCCCCCCCCCCCCCCC(=O)O)C(=O)O)C(=O)O)C(=O)O)CC1)C(=O)N[C@@H](CCCNC(=N)N)C(=O)N1CCC[C@H]1C(=O)N[C@@H](CCCNC(=N)N)C(=O)NCC(N)=O [Compound 77, C18DA-gGlu3-Sar12-PipAc-Tyr-Phe-NMeLeu-Nle-Arg-Pro-Arg-Gly-NH2] | 0.8 nM | 5.2 nM
CCCC[C@H](NC(=O)[C@H](CC(C)C)N(C)C(=O)[C@H](Cc1ccccc1)NC(=O)[C@H](Cc1ccc(O)cc1)NC(=O)CN1CCN(C(=O)CN(C)C(=O)CN(C)C(=O)CN(C)C(=O)CN(C)C(=O)CN(C)C(=O)CN(C)C(=O)CN(C)C(=O)CN(C)C(=O)CN(C)C(=O)CN(C)C(=O)CN(C)C(=O)CN(C)C(=O)CC[C@H](NC(=O)CC[C@H](NC(=O)CC[C@H](NC(=O)CCCCCCCCCCCCCCCCCCC(=O)O)C(=O)O)C(=O)O)C(=O)O)CC1)C(=O)N[C@@H](CCCNC(=N)N)C(=O)N1CCC[C@H]1C(=O)N[C@@H](CCCNC(=N)N)C(=O)NCC(N)=O [Compound 78, C20DA-gGlu3-Sar12-PipAc-Tyr-Phe-NMeLeu-Nle-Arg-Pro-Arg-Gly-NH2] | 1.2 nM | 5.3 nM
CCCC[C@H](NC(=O)[C@H](CC(C)C)N(C)C(=O)[C@H](Cc1ccccc1)NC(=O)[C@H](Cc1ccc(O)cc1)NC(=O)CN1CCN(CCNC(=O)CN(C)C(=O)CN(C)C(=O)CN(C)C(=O)CN(C)C(=O)CN(C)C(=O)CN(C)C(=O)CN(C)C(=O)CN(C)C(=O)CN(C)C(=O)CC[C@H](NC(=O)CC[C@H](NC(=O)CCCCCCCCCCCCCCCCC(=O)O)C(=O)O)C(=O)O)CC1)C(=O)N[C@@H](CCCNC(=N)N)C(=O)N1CCC[C@H]1C(=O)N[C@@H](CCCNC(=N)N)C(=O)NCC(N)=O [Compound 67, C18DA-gGlu2-Sar9-AEPipAc-Tyr-Phe-NMeLeu-Nle-Arg-Pro-Arg-Gly-NH2] (HELM PEPTIDE1{[O=C(O)CCCCCCCCCCCCCCCCC(=O)[*:2]].[gGlu].[gGlu].[Sar].[Sar].[Sar].[Sar].[Sar].[Sar].[Sar].[Sar].[Sar].[O=C(CN1CCN(CCN[*:1])CC1)[*:2]].Y.F.[meL].[Nle].R.P.R.G.[am]}$$$$V2.0) | 0.9 nM | 9.9 nM
CCCC[C@H](NC(=O)[C@H](CC(C)C)N(C)C(=O)[C@H](Cc1ccccc1)NC(=O)[C@H](Cc1ccc(O)cc1)NC(=O)CN1CCN(CCNC(=O)CN(C)C(=O)CN(C)C(=O)CN(C)C(=O)CN(C)C(=O)CN(C)C(=O)CN(C)C(=O)CN(C)C(=O)CN(C)C(=O)CN(C)C(=O)CC[C@H](NC(=O)CC[C@H](NC(=O)CCCCCCCCCCCCCCCCC(=O)O)C(=O)O)C(=O)O)CC1)C(=O)N[C@@H](CCCNC(=N)N)C(=O)N(C)[C@@H](C)C(=O)N[C@@H](CCCNC(=N)N)C(=O)NCC(N)=O [Compound 66, C18DA-gGlu2-Sar9-AEPipAc-Tyr-Phe-NMeLeu-Nle-Arg-NMeAla-Arg-Gly-NH2] (HELM PEPTIDE1{[O=C(O)CCCCCCCCCCCCCCCCC(=O)[*:2]].[gGlu].[gGlu].[Sar].[Sar].[Sar].[Sar].[Sar].[Sar].[Sar].[Sar].[Sar].[O=C(CN1CCN(CCN[*:1])CC1)[*:2]].Y.F.[meL].[Nle].R.[meA].R.G.[am]}$$$$V2.0) | 1.6 nM | 18.9 nM
CCCC[C@H](NC(=O)[C@H](CC(C)C)N(C)C(=O)[C@H](Cc1ccccc1)NC(=O)[C@H](Cc1ccc(O)cc1)NC(=O)CN1CCN(CCNC(=O)CN(C)C(=O)CN(C)C(=O)CN(C)C(=O)CN(C)C(=O)CN(C)C(=O)CN(C)C(=O)CN(C)C(=O)CN(C)C(=O)CN(C)C(=O)CN(C)C(=O)CN(C)C(=O)CN(C)C(=O)CC[C@H](NC(=O)CC[C@H](NC(=O)CC[C@H](NC(=O)CCCCCCCCCCCCCCCCCCC(=O)O)C(=O)O)C(=O)O)C(=O)O)CC1)C(=O)N[C@@H](CCCNC(=N)N)C(=O)N(C)[C@@H](C)C(=O)N[C@@H](CCCNC(=N)N)C(=O)NCC(N)=O [Compound 63, C20DA-gGlu3-Sar12-AEPipAc-Tyr-Phe-NMeLeu-Nle-Arg-NMeAla-Arg-Gly-NH2] | 4.5 nM | 14.9 nM
CCCC[C@H](NC(=O)[C@H](CC(C)C)N(C)C(=O)[C@H](Cc1ccccc1)NC(=O)[C@H](Cc1ccc(O)cc1)NC(=O)CN1CCN(CCNC(=O)CN(C)C(=O)CN(C)C(=O)CN(C)C(=O)CN(C)C(=O)CN(C)C(=O)CN(C)C(=O)CN(C)C(=O)CN(C)C(=O)CN(C)C(=O)CN(C)C(=O)CN(C)C(=O)CN(C)C(=O)CC[C@H](NC(=O)CC[C@H](NC(=O)CC[C@H](NC(=O)CC[C@H](NC(=O)CCCCCCCCCCCCCCCCC(=O)O)C(=O)O)C(=O)O)C(=O)O)C(=O)O)CC1)C(=O)N[C@@H](CCCN)C(=O)N1CCC[C@H]1C(=O)N[C@@H](CCCNC(=N)N)C(=O)NCC(N)=O [Compound 5, C18DA-gGlu4-Sar12-AEPipAc-Tyr-Phe-NMeLeu-Nle-Orn-Pro-Arg-Gly-NH2] | 1.8 nM | 10 nM
